Reference: the NIST ThermoML archive (doi:10.1007/s10765-007-0182-2)
Numbers after ± are expanded uncertainties.

Conditions: 101.33 kPa, Liquid, hot wire

Which thermal conductivity (620.3 K) does the source give for `[Pb]` [lead] here?
Its thermal conductivity is 16.2 ± 1 W/m/K.

And the thermal conductivity (678.1 K)?
Its thermal conductivity is 17 ± 1.1 W/m/K.

What about the thermal conductivity (729.5 K) of the same molecule?
Its thermal conductivity is 17.6 ± 1.1 W/m/K.
